Measurements published in US8552184B2, “Compounds and methods for treating disorders related to glucose metabolism” (Melior Pharmaceuticals I, Inc., priority 2008, dated 2013).
“Also recorded” adds a separate entry of the source.

Columns and labels:
CD1 male mice [1] = test: Oral glucose tolerance test (mouse model of hyperglycemia / type II diabetes); assay type: in vivo; settings: area under blood glucose vs time curve; 7 mg/kg intravenous; oral glucose 1.5 g/Kg; p < 0.01 vs vehicle
CD1 male mice [2] = test: as above; assay type: in vivo; settings: for Effect on blood glucose levels (in words): mouse model of hyperglycemia, high glucose load
Description: Type II diabetes is characterized by high blood glucose levels in the presence of normal amounts of insulin. Animal models of type II diabetes involve administering high levels of glucose and measuring blood glucose levels and the ability of the experimental animal to maintain glucose homeostasis over time. Several pharmacological structural classes can effectively regulate this hyperglycemic response including sulfonylureas, thiazoladinediones (PPARγ agonists; glitazones) or metformin (glucophage). These drug classes are also clinically approved for use in humans. In one present study, a mouse model of hyperglycemia has been established by administering high levels of glucose to mice.
CD1 male mice (Harlan, Indianapolis, Ind.) of between 8 and 10 weeks of age were fasted 18 hours prior to the start of the study. All blood glucose levels were measured using an Accu-Check Aviva glucose monitors with Aviva glucose test strips from a blood drop derived from the mouse tail. Prior to any treatment, baseline levels of blood glucose were measured in fasted mice. Thirty minutes after baseline measurement, Compound 101 or vehicle was administered via intravenous administration. Thirty minutes after compound administration, animals were administered an oral solution (via gavage) of glucose in distilled water. The dose of glucose was 1.5 g/Kg of body weight. Blood glucose levels were measured 15, 30, 60, 90 and 120 minutes after glucose challenge. There were 6 mice per treatment group.
Blood glucose levels were taken from treated and untreated groups at the times above and measured for concentration of glucose in milligram per deciliter of blood of sample. Average values were calculated for each time point from each group and summarized after performing statistical analysis in Table III below:
After plotting the concentration of blood glucose level over time of treated verses non-treated groups, the area under each curve was calculated to determine the glucose exposure of the treated groups of mice over time. A Student's t test with a p value of <0.001 was performed to generate a standard deviation for the average calculated glucose exposure of the group treated with Compound 101 as compared to the group treated with vehicle alone.

Row | Structure (SMILES) | Glucose Exposure (Area Under the Curve; AUC), blood glucose levels AUC (CD1 male mice [1]) [mg·min/dL] | Blood glucose levels, AVG ± SEM (CD1 male mice [2]; 0 min, baseline in fasted mice before treatment, Compound 101 group (7 mg/kg intravenous given at 30 min)) [mg/dL] | Blood glucose levels, AVG ± SEM (CD1 male mice [2]; 75 minutes (15 min after oral glucose 1.5 g/Kg), 7 mg/kg intravenous, 30 min before glucose) [mg/dL] | Blood glucose levels, AVG ± SEM (CD1 male mice [2]; 90 minutes (30 min after oral glucose 1.5 g/Kg), 7 mg/kg intravenous, 30 min before glucose) [mg/dL] | Blood glucose levels, AVG ± SEM (CD1 male mice [2]; 120 minutes (60 min after oral glucose 1.5 g/Kg), 7 mg/kg intravenous, 30 min before glucose) [mg/dL] | Blood glucose levels, AVG ± SEM (CD1 male mice [2]; 150 minutes (90 min after oral glucose 1.5 g/Kg), 7 mg/kg intravenous, 30 min before glucose) [mg/dL] | Blood glucose levels, AVG ± SEM (CD1 male mice [2]; 180 minutes (120 min after oral glucose 1.5 g/Kg), 7 mg/kg intravenous, 30 min before glucose) [mg/dL] | Effect on blood glucose levels (in words) (CD1 male mice [2])
1 | Cc1cccc(Oc2c[nH]c(=O)[nH]c2=O)c1 [Compound 101, 5-(m-tolyloxy)pyrimidine-2,4(1H,3H)-dione] | 8424.7 ± 1922.5 | 62.0 ± 13.1 | 119.6 ± 36.0 | 156.4 ± 55.9 | 152.2 ± 33.9 | 107.8 ± 34.1 | 102.6 ± 39.9 | effective in reducing blood glucose levels; also recorded: effectively controls glucose levels in vivo
2 | CN(C)C(=N)N=C(N)N [metformin, reference compound] |  |  |  |  |  |  |  | can effectively reduce the blood glucose load
